Measurements taken from patent US5827871A, “Medicaments 1,2,3,4-tetrahydrocarbazoles and 5-HT1 agonist use thereof” (priority 1991, dated 1998).
Structures can show the parent of a compound that is named as a salt.

The molecules below were run against 5-HT1-like receptor (Canis lupus familiaris, UniProt P79250) (assay: 5-HT1-like receptor screen, dog saphenous vein contraction). Details: contraction of dog saphenous vein helicoids, 37° C., in presence of ketanserin, prazosin, atropine, mepyramine, cocaine and ascorbate; EC50 estimated from concentration-effect curve.
Experimental: 5-HT1 -like Receptor Screen
Helicoids of dog saphenous vein were set up at 37° C. in modified Krebs solution at a resting force of 10 mN. The solution also contained 1 μmol/l each of ketanserin prazosin, atropine and mepyramine, 6 μmol/l cocaine and 200 μmol/l ascorbate. Nearly […] contractions were measured with force transducers on a polygraph. The tissues were exposed twice to 5-hydroxytryptamine (5-HT) 2 μmol/l followed by washes. A cumulative concentration-effect curve was determined, followed by a curve to 5-HT in the presence of the highest used concentration of test compound. Contractions caused by the test compound were compared with those caused by 5-HT. The intrinsic activity of the test compound was calculated as the ratio of the maximum test compound-induced effect over the effect caused by 2 μmol/l 5-HT. The EC50 of the test compound was estimated from the corresponding effect curve. When appropriate equilibrium dissociation constants Kp were estimated by the method of Marano & Kaumann (1976, J. Pharmacol. Exp. Ther. 198, 518-525).

Sequence of 5-HT1-like receptor (Canis lupus familiaris, UniProt P79250) (P79250 whole entry): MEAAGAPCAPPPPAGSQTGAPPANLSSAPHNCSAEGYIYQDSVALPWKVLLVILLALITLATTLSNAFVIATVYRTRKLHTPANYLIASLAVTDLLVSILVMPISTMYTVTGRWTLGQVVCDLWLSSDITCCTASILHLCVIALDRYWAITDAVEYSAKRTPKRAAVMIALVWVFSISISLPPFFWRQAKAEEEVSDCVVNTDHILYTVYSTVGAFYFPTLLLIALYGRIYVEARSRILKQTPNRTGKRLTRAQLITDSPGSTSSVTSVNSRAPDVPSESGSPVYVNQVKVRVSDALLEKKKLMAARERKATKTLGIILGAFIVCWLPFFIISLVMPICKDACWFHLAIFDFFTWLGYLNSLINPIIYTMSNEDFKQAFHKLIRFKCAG

| EC50 [µM] | Compound |
| --- | --- |
| 0.1 to 15 | N#CCc1ccc2[nH]c3c(c2c1)CC(N)CC3 (stereo not shown) [Example 10, 3-Amino-6-cyanomethyl-1,2,3,4-tetrahydrocarbazole oxalate] |
| 0.1 to 15 | CNS(=O)(=O)Cc1ccc2[nH]c3c(c2c1)CC(N)CC3 (stereo not shown) [Example 11, 3-Amino-6-(N-methylsulphonamidomethyl)-1,2,3,4-tetrahydrocarbazole oxalate] |
| 0.1 to 15 | CC(=O)Nc1ccc2[nH]c3c(c2c1)CC(N)CC3 (stereo not shown) [Example 21, 3-Amino-6-(acetamido)-1,2,3,4-tetrahydrocarbazole oxalate] |
| 0.1 to 15 | CNC1CCc2[nH]c3ccc(C(N)=O)cc3c2C1 (stereo not shown) [Example 24, 3-Methylamino-6-carboxamido-1,2,3,4-tetrahydrocarbazole hydrochloride] |

What follows are molecules tested against T1, 5-HT1-like receptor (Oryctolagus cuniculus, UniProt P49144) (assay: 5-HT1-like receptor screen, rabbit isolated basilar artery contraction). Details: isometric tension of endothelium-denuded rabbit basilar artery rings, in presence of ascorbate, indomethacin, cocaine, ketanserin and prazosin.
T1 construct: from tissue; host or cells: rabbit basilar artery (endothelium-denuded ring segments)
Experimental: Experiments were performed in intracranial arteries from rabbit isolated basilar artery in a similar method to one described previously (Parsons and Whalley, 1989. Eur J Pharmacol 174, 189-196.).
In brief, rabbits were killed by overdose with anaesthetic (sodium pentobarbitone). The whole brain was quickly removed and immersed in ice cold modified Kreb's solution and the basilar artery removed with the aid of a dissecting microscope. The Krebs solution was of the following composition (mM) Na^+ (120); K^+ (5); Ca^2+ (2.25); Mg^2+ (0.5); Cl^- (98.5); SO4^2- (1); EDTA (0.04), equilibrated with 95% O2 /5% CO2. The endothelium was removed by a gentle rubbing of the lumen with a fine metal wire. Arteries were then cut into ring segments (ca 4-5 mm wide) and set up for recording of isometric tension in 50 ml tissue baths in modified Krebs solution with the additional supplement of (mM); […] (20); fumarate (10); pyruvate (5); L-glutamate (5) and glucose (10). The arteries were then placed under a resting force of 3-4 mN maintained at 37° C. and the solution bubbled with 95% O2 /5% CO2.
After tests for initial reactivity with 90 mM KCl depolarising solution and for lack of acetylcholine-induced relaxation of 5-HT ([…]) precontraction, cumulative concentration-effect curves ([…]) to 5-HT were constructed in the presence of ascorbate […], cocaine […], indomethacin […], ketanserin […] and prazosin […].
Following a 45-60 min wash period, cumulative concentration-effect curves to the test compounds or 5-HT (as a time match control) were constructed in the presence of ascorbate, indomethacin, cocaine, ketanserin and prazosin.

T1 sequence (P49144 whole entry): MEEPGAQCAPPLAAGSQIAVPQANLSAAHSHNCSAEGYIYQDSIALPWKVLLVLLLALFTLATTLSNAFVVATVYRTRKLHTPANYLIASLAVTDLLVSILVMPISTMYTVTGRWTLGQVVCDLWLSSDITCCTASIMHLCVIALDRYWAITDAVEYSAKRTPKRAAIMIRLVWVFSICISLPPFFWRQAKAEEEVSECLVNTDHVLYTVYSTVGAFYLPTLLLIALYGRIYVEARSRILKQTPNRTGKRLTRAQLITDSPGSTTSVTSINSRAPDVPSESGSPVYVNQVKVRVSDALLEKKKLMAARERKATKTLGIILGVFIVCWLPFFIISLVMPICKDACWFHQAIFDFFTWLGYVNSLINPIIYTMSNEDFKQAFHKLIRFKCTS

| EC50 [µM] | Compound |
| --- | --- |
| 0.04 to 15 | NC1CCc2[nH]c3ccc(S(N)(=O)=O)cc3c2C1 (stereo not shown) [Example 15, 3-Amino-6-sulphonamido-1,2,3,4-tetrahydrocarbazole oxalate] |
| 0.04 to 15 | CNC1CCc2[nH]c3ccc(C(N)=O)cc3c2C1 (stereo not shown) [Example 24, 3-Methylamino-6-carboxamido-1,2,3,4-tetrahydrocarbazole hydrochloride] |
| 0.04 to 15 | NC(=O)c1ccc2[nH]c3c(c2c1)CC(NCc1ccccc1)CC3 (stereo not shown) [Example 29, 3-Benzylamino-6-carboxamido-1,2,3,4-tetrahydrocarbazole oxalate] |
